According to PubChem BioAssay (NCI):
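Cultured in 96-well plates, cells were exposed to test compound for 48 hours across five concentrations. The concentration for 50% growth inhibition is given as GI50. At the TGI there is no net growth.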

Legend:
Assay in all cases: NCI-60 cell line screen, 48 h
786-0 renal = system: 786-0 renal
MALME-3M melanoma = system: MALME-3M melanoma
SR leukemia = system: SR leukemia
OVCAR-3 ovarian = system: OVCAR-3 ovarian
NCI-H522 lung = system: NCI-H522 lung
RXF 393 renal = system: RXF 393 renal
SK-MEL-5 melanoma = system: SK-MEL-5 melanoma
RPMI-8226 leukemia = system: RPMI-8226 leukemia
HL-60(TB) leukemia = system: HL-60(TB) leukemia
UACC-257 melanoma = system: UACC-257 melanoma

SMILES | TGI (786-0 renal) | TGI (MALME-3M melanoma) | TGI (SR leukemia) | TGI (OVCAR-3 ovarian) | TGI (NCI-H522 lung) | TGI (RXF 393 renal) | TGI (SK-MEL-5 melanoma) | GI50 (786-0 renal) | GI50 (SR leukemia) | GI50 (OVCAR-3 ovarian) | GI50 (NCI-H522 lung) | GI50 (RPMI-8226 leukemia) | TGI (RPMI-8226 leukemia) | GI50 (HL-60(TB) leukemia) | TGI (HL-60(TB) leukemia) | GI50 (RXF 393 renal) | GI50 (SK-MEL-5 melanoma) | TGI (UACC-257 melanoma) | GI50 (MALME-3M melanoma) | GI50 (UACC-257 melanoma)
CCN(CC)CCCn1cnc2ncccc2c1=O | > 100 µM | > 100 µM | > 100 µM | > 100 µM | > 100 µM | > 100 µM | > 100 µM | – | – | – | – | – | – | – | – | – | – | – | – | –
O=S(=O)(Cc1ccc(Cl)cc1Cl)c1ccc(Cl)cc1 | > 100 µM | – | 11 µM | 1.8 µM | 2.27 µM | 7.55 µM | 24.4 µM | 1.84 µM | 0.296 µM | 0.346 µM | 0.282 µM | 1.14 µM | > 69.7 µM | 0.37 µM | 17.7 µM | 1.4 µM | 0.437 µM | – | – | –
CC1(Cl)CC2OC3(Br)C=CC(C)(O)C2(CC1Br)C3(C)C (stereo not given) | > 100 µM | > 100 µM | > 100 µM | > 100 µM | – | > 100 µM | > 100 µM | – | – | – | – | – | > 100 µM | – | > 100 µM | – | – | > 100 µM | – | –
CSc1cccc(-n2c3nc(=O)n(C)c(=O)c-3nc3ccccc32)c1 | 33.4 µM | 11.4 µM | – | 6.17 µM | 28.3 µM | – | 3.02 µM | – | – | – | – | – | 26.2 µM | – | 16.7 µM | – | – | – | – | –
COC(c1cccc(C(O)(C(F)(F)F)C(F)(F)F)c1)(C(F)(F)F)C(F)(F)F | 31.8 µM | 35.3 µM | 51.4 µM | 38 µM | 26.5 µM | 35.9 µM | – | – | – | – | – | – | – | – | – | – | – | 42.3 µM | – | –
CCC1C(=O)OCc2c1cc1n(c2=O)Cc2cc3ccccc3nc2-1 (stereo not given) | 27.3 µM | > 100 µM | – | > 100 µM | > 44.4 µM | > 94.9 µM | 32.1 µM | – | – | – | – | – | > 100 µM | – | > 36.2 µM | – | – | > 100 µM | – | –
O=C1CC(c2cccc(O)c2)C2(C(=O)NC(=S)NC2=O)C(c2cccc(O)c2)C1 (stereo not given) | > 100 µM | > 100 µM | – | > 100 µM | > 100 µM | > 100 µM | > 100 µM | > 100 µM | – | > 100 µM | > 100 µM | > 100 µM | > 100 µM | > 100 µM | > 100 µM | > 100 µM | > 100 µM | > 100 µM | > 100 µM | > 100 µM
CC(=O)CCc1ccc(OC2OC(COC(=O)c3cc(O)c(O)c(O)c3)C(O)C(O)C2OC(=O)/C=C/c2ccccc2)cc1 (stereo not given) | 48.2 µM | 46.2 µM | – | 72.4 µM | 48 µM | 47.2 µM | 36.1 µM | 18.6 µM | – | 23.8 µM | 18.1 µM | 23.7 µM | 85.3 µM | – | – | 19 µM | 19.1 µM | – | 26.8 µM | –
COc1cccc(C2C3=C(COC3=O)N(CCO)c3cc(OC)ccc32)c1 (stereo not given) | > 29.6 µM | > 100 µM | > 100 µM | 0.166 µM | 1.44 µM | – | 1.97 µM | 0.148 µM | 0.0493 µM | 0.0347 µM | 0.0307 µM | 0.271 µM | > 100 µM | 0.276 µM | > 100 µM | – | 0.0474 µM | > 100 µM | 0.0786 µM | 0.036 µM
